Where two headings read alike, the source gives them in different places.
What was measured:
Format in all cases: biochemical
caspase 1 = biological target: T1, caspase 1 (Homo sapiens, UniProt P29466); assay: Enzyme inhibition assay, caspase 1 (fluorogenic Ac-YVAD-AMC)
T1 construct: purchased BIOMOL Research Laboratories (Plymouth Meeting, Pa.)
T1 sequence (P29466 120-297 limits assumed): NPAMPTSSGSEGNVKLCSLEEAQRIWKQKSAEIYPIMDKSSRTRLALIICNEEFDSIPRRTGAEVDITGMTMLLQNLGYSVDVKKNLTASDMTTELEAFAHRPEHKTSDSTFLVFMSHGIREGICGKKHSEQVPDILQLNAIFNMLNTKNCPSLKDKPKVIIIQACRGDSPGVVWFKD
T1 sequence (P29466 317-404 limits assumed): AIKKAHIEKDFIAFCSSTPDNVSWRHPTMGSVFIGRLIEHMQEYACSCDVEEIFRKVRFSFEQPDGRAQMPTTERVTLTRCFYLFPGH
Experimental: (§1) Enzyme Assays. Inhibition of recombinant human caspase-3 and other caspases by the isatin analogues was assessed using a fluorometric assay by measuring the accumulation of a fluorogenic product, 7-amino-4-methylcoumarin (7-AMC).
(§2) Enzyme Inhibition Assays. Recombinant human caspases (3, 6, 7, and 8) and their peptide-specific substrates (Ac-DEVDAMC, Ac-VEID-AMC, Ac-DEVD-AMC, and Ac-IETD-AMC, respectively) were purchased from Sigma-Aldrich (St. Louis, Mo.) with the exception of caspase 1 and its substrate (Ac-YVAD-AMC), which were obtained from BIOMOL Research Laboratories (Plymouth Meeting, Pa.). The enzymatic activity of caspases was determined by measuring the accumulation of the fluorogenic product 7-amino-4-methylcoumarin (AMC). All assays were prepared in 96-well format at a volume of 210 μL per well and consisted of 100 mM Na+ HEPES (pH 7.4), 10% sucrose, 100 mM NaCl, 0.1% CHAPS, 5 mM 2-mercaptoethanol, 2 mM EDTA, 10 μM Ac-YVAD-AMC (caspase 1); 20 mMNa^+ HEPES (pH 7.4), 10% sucrose, 100 mMNaCl, 0.1% CHAPS, 2 mM EDTA, 10 μM Ac-DEVD-AMC (caspase 3); 20 mM Na^+ HEPES (pH 7.4), 10% sucrose, 100 mM NaCl, 0.1% CHAPS, 2 mM EDTA, 10 μM Ac-VEID-AMC (caspase 6); 20 mM Na+ HEPES (pH 7.4), 100 mM NaCl, 10% sucrose, 0.1% CHAPS, 5 mM 2-mercaptoethanol, 2 mM EDTA, 10 μM Ac-DEVD-AMC (caspase 7); 20 mM Na+ HEPES (pH 7.4), 10% sucrose, 100 mM NaCl, 0.1% CHAPS, 2 mM EDTA, 10 μM Ac-IETD-AMC (caspase 8).
(§3) Recombinant caspases were first assayed to determine the optimal concentration for each experiment. Optimal concentrations were based in the linear range of the enzyme activation curves. Peptide inhibitors with known IC50 values were tested together with the compounds as a control for each caspase assay. […] Peptide and nonpeptide inhibitors were dissolved in DMSO, and a 2 serial dilution was performed prior to screening in order to obtain desired concentrations. 10 μL was added to each well containing 100 μL caspase solution and allowed to incubate on ice for 30 min. […] The final concentration of DMSO in all wells was 5% of the total volume. In caspase-1 and caspase-7 assays, 10 mM 2-mercaptoethanol was added to the substrate solution for full activation of the enzymes.
(§4) Compounds were tested in duplicate, and IC50 curves were calculated for all inhibitors assayed. Final IC50s were the average of three independent experiments.

caspase-3 = biological target: T2, caspase-3 (Homo sapiens, UniProt P42574); assay: Enzyme inhibition assay, caspase 3 (fluorogenic Ac-DEVD-AMC)
T2 construct: purchased Sigma-Aldrich (St. Louis, Mo.)
T2 sequence (P42574 29-175 limits assumed): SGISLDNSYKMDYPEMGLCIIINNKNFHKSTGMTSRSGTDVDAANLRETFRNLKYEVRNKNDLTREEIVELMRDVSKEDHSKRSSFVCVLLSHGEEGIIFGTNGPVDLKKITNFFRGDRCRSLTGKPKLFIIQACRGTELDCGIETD
T2 sequence (P42574 176-277 limits assumed): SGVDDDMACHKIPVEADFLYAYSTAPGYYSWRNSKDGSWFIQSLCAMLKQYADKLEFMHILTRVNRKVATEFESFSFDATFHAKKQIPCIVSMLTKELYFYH

caspase 6 = biological target: T3, caspase 6 (Homo sapiens, UniProt P55212); assay: Enzyme inhibition assay, caspase 6 (fluorogenic Ac-VEID-AMC)
T3 construct: purchased Sigma-Aldrich (St. Louis, Mo.)
T3 sequence (P55212 24-179 limits assumed): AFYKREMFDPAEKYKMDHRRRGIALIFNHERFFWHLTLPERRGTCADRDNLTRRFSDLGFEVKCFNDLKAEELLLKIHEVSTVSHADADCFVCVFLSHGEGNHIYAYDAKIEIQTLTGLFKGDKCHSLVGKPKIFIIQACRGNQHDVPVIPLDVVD
T3 sequence (P55212 194-293 limits assumed): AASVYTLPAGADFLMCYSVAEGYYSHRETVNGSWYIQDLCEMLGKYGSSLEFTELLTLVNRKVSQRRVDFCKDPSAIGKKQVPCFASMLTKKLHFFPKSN

caspase 7 = biological target: T4, caspase 7 (Homo sapiens, UniProt P55210); assay: Enzyme inhibition assay, caspase 7 (fluorogenic Ac-DEVD-AMC)
T4 construct: purchased Sigma-Aldrich (St. Louis, Mo.)
T4 sequence (P55210 24-198 limits assumed): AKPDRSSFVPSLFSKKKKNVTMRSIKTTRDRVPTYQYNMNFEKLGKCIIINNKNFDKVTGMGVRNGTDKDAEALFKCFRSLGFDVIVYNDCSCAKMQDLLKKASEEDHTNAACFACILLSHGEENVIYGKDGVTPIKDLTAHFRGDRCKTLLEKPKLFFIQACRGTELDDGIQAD
T4 sequence (P55210 207-303 limits assumed): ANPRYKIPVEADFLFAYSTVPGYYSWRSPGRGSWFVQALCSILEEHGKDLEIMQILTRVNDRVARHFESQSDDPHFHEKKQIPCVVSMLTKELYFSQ

caspase 8 = biological target: T5, caspase 8 (Homo sapiens, UniProt Q14790); assay: Enzyme inhibition assay, caspase 8 (fluorogenic Ac-IETD-AMC)
T5 construct: purchased Sigma-Aldrich (St. Louis, Mo.)
T5 sequence (Q14790 217-374 limits assumed): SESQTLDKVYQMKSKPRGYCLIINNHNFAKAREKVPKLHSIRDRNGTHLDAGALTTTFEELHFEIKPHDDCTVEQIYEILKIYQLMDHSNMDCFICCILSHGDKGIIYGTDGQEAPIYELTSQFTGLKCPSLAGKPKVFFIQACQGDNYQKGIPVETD
T5 sequence (Q14790 385-479 limits assumed): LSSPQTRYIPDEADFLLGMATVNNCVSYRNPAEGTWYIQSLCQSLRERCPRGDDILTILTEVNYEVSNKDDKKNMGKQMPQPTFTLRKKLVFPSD
Experimental: as §1, §2, §3, §4

[1] = Table 2, read-out: IC50 (nM) Caspase 1
[2] = Table 7, read-out: IC50 (nM) Casp-1
[3] = Table 2, read-out: IC50 (nM) Caspase 3
[4] = Table 2, read-out: IC50 (nM) Caspase 6
[5] = Table 2, read-out: IC50 (nM) Caspase 7
[6] = Table 2, read-out: IC50 (nM) Caspase 8
[7] = Table 7, read-out: IC50 (nM) Casp-8

| SMILES | IC50 (caspase 1; [1]) [nM] | IC50 (caspase-3; [3]) [nM] | IC50 (caspase 6; [4]) [nM] | IC50 (caspase 7; [5]) [nM] | IC50 (caspase 8; [6]) [nM] | IC50 (caspase 8; [7]) [nM] | IC50 (caspase-3; IC50 (nM) Casp-3, Table 7) [nM] | IC50 (caspase 6) [nM] | IC50 (caspase 7; IC50 (nM) Casp-7, Table 7) [nM] | IC50 (caspase 1) [nM] | IC50 (caspase 1; IC50 (nM) Casp-1, Table 7) [nM] | IC50 (caspase 1; read-out: IC50 for caspase-1) [nM] | IC50 (caspase-3; IC50 (nM) Caspase 3, Table 2) [nM] | IC50 (caspase-3; IC50 for caspase-3) [nM] | IC50 (caspase 6; read-out: IC50 for caspase-6) [nM] | IC50 (caspase 7; IC50 (nM) Caspase 7, Table 2) [nM] | IC50 (caspase 7; IC50 for caspase-7) [nM] | IC50 (caspase 8; read-out: IC50 for caspase-8) [nM] | also measured |
| --- | --- | --- | --- | --- | --- | --- | --- | --- | --- | --- | --- | --- | --- | --- | --- | --- | --- | --- | --- |
| N#CC(C#N)=C1C(=O)N(Cc2ccc(Br)cc2)c2ccc(S(=O)(=O)N3CCCC3COc3ccccc3)cc21 (stereo not drawn) [Compound 27d, 2-[1-(4-Bromo-benzyl)-2-oxo-5-(2-phenoxymethyl-pyrrolidine-1-sulfonyl)-1,2-dihydro-indol-3-yl-idene]-malononitrile] | 5700 | 20.1 ± 1.3 | 840 ± 125 | 92.2 ± 11.8 | > 50000 | > 50000 | – | – | – | – | – | – | – | – | – | – | – | – | IC50 (caspase 1; [2]): 5700 ± 850 nM; IC50 (caspase-3; Table 7, read-out: IC50 (nM) Casp-3): 20.1 ± 1.3 nM; IC50 (caspase-3; read-out: IC50 for caspase-3): 20.1 nM; IC50 (caspase 6; Table 7, read-out: IC50 (nM) Casp-6): 840 ± 125 nM; IC50 (caspase 7; Table 7, read-out: IC50 (nM) Casp-7): 92.2 ± 11.8 nM; IC50 (caspase 7; read-out: IC50 for caspase-7): 92.2 nM |
| O=C1C(=O)N(Cc2ccc(O)cc2)c2ccc(S(=O)(=O)N3CCCC3COc3cccnc3)cc21 (stereo not drawn) [Compound 28b, 1-(4-Hydroxy-benzyl)-5-[2-(pyridin-3-yl-oxymethyl)-pyrrolidine-1-sulfonyl]-1H-indole-2,3-dione] | – | – | – | – | – | > 50000 | 3.9 ± 0.6 | 9550 ± 354 | 11.7 ± 1 | – | – | – | – | – | – | – | – | – | IC50 (caspase 1; [2]): > 15000 nM |
| N#CC(C#N)=C1C(=O)N(Cc2ccccc2)c2ccc(S(=O)(=O)N3CCCC3COc3cccnc3)cc21 (stereo not drawn) [Compound 30a, 2-{1-Benzyl-2-oxo-5-[2-(pyridine-3-yloxymethyl)-pyrrolidine-1-sulfonyl]-1,2-dihydro-indol-3-yl-idene}-malononitrile] | – | – | – | – | > 50000 | > 50000 | 7.6 ± 1.1 | 823 ± 86 | 32.8 ± 4.9 | 3250 | 3250 ± 450 | 2700 to 3200 | 7.6 ± 1.1 | 7.6 | 515 to 770 | 32.8 ± 4.9 | 32.8 | > 50000 | – |
| N#CC(C#N)=C1C(=O)N(Cc2ccc(O)cc2)c2ccc(S(=O)(=O)N3CCCC3COc3cccnc3)cc21 (stereo not drawn) [Compound 30b, 2-{1-(4-Hydroxy-benzyl)-2-oxo-5-[2-(pyridine-3-yloxymethyl)-pyrrolidine-1-sulfonyl]-1,2-dihydro-indol-3-yl-idene}-malononitrile] | – | – | 850 ± 21 | – | > 50000 | > 50000 | 7.8 ± 1.9 | 650 ± 22 | 28.3 ± 5.4 | 2720 | 2720 ± 580 | 2700 to 3200 | 7.8 ± 1.9 | 7.8 | 515 to 770 | 28.3 ± 5.4 | 28.6 | > 50000 | – |
| N#CC(C#N)=C1C(=O)N(Cc2ccc(Br)cc2)c2ccc(S(=O)(=O)N3CCCC3COc3cccnc3)cc21 (stereo not drawn) [Compound 30c, 2-{1-(4-Bromo-benzyl)-2-oxo-5-[2-(pyndine-3-yloxymethyl)-pyrrolidine-1-sulfonyl]-1,2-dihydro-indol-3-yl-idene}-malononitrile] | – | – | – | – | > 50000 | > 50000 | – | 515 ± 77 | 26.3 ± 0.8 | 3400 | 3400 | 2700 to 3200 | 5.13 ± 0.7 | 5.1 | 515 to 770 | 26.3 ± 0.8 | 26.3 | > 50000 | – |
| O=C1Nc2ccc(S(=O)(=O)N3CC[C@H]3COc3ccccc3)cc2C1=NO [WC-II-52] | > 50000 | > 20000 | > 20000 | > 50000 | > 50000 | – | – | – | – | – | – | – | – | – | – | – | – | – | potency as caspase-3/7 inhibitors (in words) (caspase-3; caspase-3/7): low potency |
| N#CC(C#N)=C1C(=O)Nc2ccc(S(=O)(=O)N3CC[C@H]3COc3ccccc3)cc21 [WC-II-54] | 2380 | 283 ± 15 | 540 ± 44 | 2380 | > 50000 | – | – | – | – | – | – | – | – | – | – | – | – | – | – |
| COc1ccc(CN2C(=O)C(=C(C#N)C#N)c3cc(S(=O)(=O)N4CC[C@H]4COc4cccnc4)ccc32)cc1 [WC-II-87] | 3600 | 6 ± 0.8 | 450 ± 43 | 50 ± 11.6 | > 50000 | – | – | – | – | – | – | – | – | – | – | – | – | – | – |
